Measurements: US10086085B2, “Bifunctional cytotoxic agents” (priority 2014, dated 2018)

What was measured:
HL60 (leukemia) = assay: Cytotoxicity assay for payloads (MTS), HL-60 cells; format: cell-based; conditions: Homo sapiens, 96 h, incubated with compounds for four days, MTS absorbance 490 nm
Protocol: (§1) Cancer cell lines were obtained from ATCC (Manassas, Va.). N87 (human gastric carcinoma derived from metastatic liver site). HL60 (leukemia), A375 (melanoma) and HUVEC (human umbilical vein endothelial cells). were grown in RPMI 1640 media. All media were supplemented with 10% fetal bovine serum, 1% sodium pyruvate, and 1% L-glutamine (Invitrogen, Grand Island, N.Y.). Human umbilical vein endothelial cells (HUVEC) were obtained from Lonza (Allendale, N.J.) and maintained in EGM2 media supplemented with EGM-2 SingleQuots (Lonza # CC-4176). All cells were maintained in a humidified incubator (37° C., 5% CO2).
(§2) Cells in 100 μl medium were cultured in a 96-well plate. Cancer cell lines treated with the indicated compounds by adding 50 μl of 3× stocks in duplicate at 10 concentrations. Cells were incubated with compounds for four days, then 30 μl of CellTiter® 96 AQueous One MTS Solution (Promega Cat # G3582) was added to the cells, incubated 1.5 hr at 37° C., then absorbance measured at 490 nm on a Victor plate reader (Perkin Elmer, Waltham, Mass.). Relative cell viability was determined as a percentage of untreated control wells. IC50 values were calculated using four parameter logistic model #203 with XLfit v4.2 (IDBS, Guildford, Surry, UK).

[1] = system: N87 (human gastric carcinoma derived from metastatic liver site); assay: Cytotoxicity assay for payloads (MTS), N87 cells; format: cell-based; conditions: Homo sapiens, 96 h; N87 cells, incubated with compounds for four days, MTS absorbance 490 nm; read-out: N87 IC50
Protocol: as §1, §2

Question: What does the source list for NC(CC(=O)N1C[C@H]2C[C@@]23C1=CC(=O)c1ccccc13)CC(=O)N1C[C@H]2C[C@@]23C1=CC(=O)c1ccccc13 [Compound 166, 3-amino-1,5-bis[(1aS,9bR)-5-oxo-1a,2-dihydro-1H-benzo[e]cyclopropa[c]indol-3(5H)-yl]pentane-1,5-dione]?
Answer: IC50 (HL60 (leukemia)): 0.659 nM; IC50 [1]: 5.69 nM

Question: What does the source list for CC(=O)Nc1ccc2c(OC(C)=O)cc3c(c2c1)[C@H](CCl)CN3C(=O)C12CC(C(=O)N3C[C@@H](CCl)c4c3cc(OC(C)=O)c3ccccc43)(C1)C2 [Compound 109, (1S)-3-[(3-{[(1S)-8-(acetylamino)-5-(acetyloxy)-1-(chloromethyl)-1,2-dihydro-3H-benzo[e]indol-3-yl]carbonyl}bicyclo[1.1.1]pent-1-yl)carbonyl]-1-(chloromethyl)-2,3-dihydro-1H-benzo[e]indol-5-yl acetate]?
Answer: IC50 (HL60 (leukemia)): 0.095 nM; IC50 [1]: 2.3 nM

Question: What does the source list for O=C(c1cccc(C(=O)N2C[C@@H](CCl)c3c2cc(O)c2ccccc32)n1)N1C[C@@H](CCl)c2c1cc(O)c1ccccc21 [Compound 18, (S)-pyridine-2,6-diylbis(((S)-1-(chloromethyl)-5-hydroxy-1H-benzo[e]indol-3(2H)-yl)methanone)]?
Answer: IC50 (HL60 (leukemia)): 2.19 nM; IC50 [1]: 174 nM

Question: Which IC50 (HL60 (leukemia)) does the source give for O=C(CCSCCC(=O)N1C[C@@H](CCl)c2c1cc(O)c1ccccc21)N1C[C@@H](CCl)c2c1cc(O)c1ccccc21 [Compound 23, (S)-3,3′-thiobis(1-((S)-1-(chloromethyl)-5-hydroxy-1H-benzo[e]indol-3(2H)-yl)propan-1-one)] here?
Answer: 0.072 nM

Question: And the IC50 [1]?
Answer: 0.252 nM

Question: Which results are given for Cc1c[nH]c2c(O)cc3c(c12)[C@H](CCl)CN3C(=O)CN(CC(=O)N1C[C@@H](CCl)c2c1cc(O)c1[nH]cc(C)c21)C(=O)OCC1c2ccccc2-c2ccccc21 [Compound 169, 9H-fluoren-9-ylmethyl bis{2-[(1S)-1-(chloromethyl)-5-hydroxy-8-methyl-1,6-dihydropyrrolo[3,2-e]indol-3(2H)-yl]-2-oxoethyl}carbamate]?
Answer: IC50 (HL60 (leukemia)): 0.388 nM; IC50 [1]: 9.82 nM

Question: With CC(=O)Oc1cc2c(c3ccccc13)[C@H](CCl)CN2C(=O)C12CC(CC(=O)N3C[C@@H](CCl)c4c3cc(O)c3ccccc43)(C1)C2 [Compound 162, (1S)-1-(chloromethyl)-3-[(3-{2-[(1S)-1-(chloromethyl)-5-hydroxy-1,2-dihydro-3H-benzo[e]indol-3-yl]-2-oxoethyl}bicyclo[1.1.1]pent-1-yl)carbonyl]-2,3-dihydro-1H-benzo[e]indol-5-yl acetate] as the compound, how does the IC50 (HL60 (leukemia)) read?
Answer: 0.02 nM

Question: And the IC50 [1]?
Answer: 0.749 nM

Question: For CC(=O)Oc1cc2c(c3ccccc13)[C@H](CCl)CN2C(=O)C12CCC(C(=O)N3C[C@@H](CCl)c4c3cc(OC(C)=O)c3ccccc43)(C1)C2 [Compound 82, (1S,4S)-bicyclo[2.1.1]hexane-1,4-diylbis[carbonyl(1S)-1-(chloromethyl)-1,2-dihydro-3H-benzo[e]indole-3,5-diyl]diacetate], which IC50 (HL60 (leukemia)) is on record?
Answer: 0.359 nM

Question: And the IC50 [1]?
Answer: 3.24 nM

Question: How did the IC50 (HL60 (leukemia)) turn out when O=C(c1cccc(C(=O)N2C[C@@H](CCl)c3c2cc(O)c2ccccc32)c1)N1C[C@@H](CCl)c2c1cc(O)c1ccccc21 [Compound 20, (S)-1,3-phenylenebis(((S)-1-(chloromethyl)-5-hydroxy-1H-benzo[e]indol-3(2H)-yl)methanone)] was run?
Answer: 1.62 nM

Question: What about the IC50 [1] of the same compound?
Answer: 297 nM

Question: Which IC50 (HL60 (leukemia)) does the source give for CC(=O)Oc1cc2c(c3ccccc13)[C@H](CCl)CN2C(=O)c1ccc(C(=O)N2C[C@@H](CCl)c3c2cc(N)c2ccccc32)s1 [Compound 115, Acetic acid (S)-3-[5-((S)-5-amino-1-chloromethyl-1,2-dihydro-benzo[e]indole-3-carbonyl)-thiophene-2-carbonyl]-1-chloromethyl-2,3-dihydro-1H-benzo[e]indol-5-yl ester] here?
Answer: 0.015 nM

Question: What about the IC50 [1] of the same compound?
Answer: 1.44 nM

Question: With CC(=O)Oc1cc2c(c3c(C)c[nH]c13)[C@H](CCl)CN2C(=O)CC12CC(C(=O)N3C[C@@H](CCl)c4c3cc(OC(C)=O)c3[nH]cc(C)c43)(C1)C2 [Compound 97, (8S)-6-[(3-{[(1S)-5-(acetyloxy)-1-(chloromethyl)-8-methyl-1,6-dihydropyrrolo[3,2-e]indol-3(2H)-yl]carbonyl}bicyclo[1.1.1]pent-1-yl)acetyl]-8-(chloromethyl)-1-methyl-3,6,7,8-tetrahydropyrrolo[3,2-e]indol-4-yl acetate] as the compound, how does the IC50 (HL60 (leukemia)) read?
Answer: 0.009 nM

Question: And the IC50 [1]?
Answer: 0.222 nM

Question: Which results are given for COc1c(C(=O)N2C[C@@H](CCl)c3c2cc(OC(C)=O)c2ccccc32)sc(C(=O)N2C[C@@H](CCl)c3c2cc(OC(C)=O)c2ccccc32)c1OC [Compound 143, (3,4-dimethoxythiene-2,5-diyl)bis[carbonyl(1S)-1-(chloromethyl)-1,2-dihydro-3H-benzo[e]indole-3,5-diyl] diacetate]?
Answer: IC50 (HL60 (leukemia)): ≥ 10 nM; IC50 [1]: ≥ 100 nM

Question: For O=C1C=C2N(C(=O)c3ccc(C(=O)N4C[C@H]5C[C@@]56C4=CC(=O)c4ccccc46)s3)C[C@H]3C[C@@]23c2ccccc21 [Compound 136, (1aS,9bR,1a′S,9b′R)-3,3′-(thiene-2,5-diyldicarbonyl)bis(1,1a,2,3-tetrahydro-5H-benzo[e]cyclopropa[c]indol-5-one)], which IC50 (HL60 (leukemia)) is on record?
Answer: 0.005 nM

Question: What about the IC50 [1] of the same compound?
Answer: 0.003 nM

Question: Which IC50 (HL60 (leukemia)) does the source give for O=C(O)[C@H]1O[C@@H](Oc2cc3c(c4ccccc24)[C@H](CCl)CN3C(=O)CC23CC(C(=O)N4C[C@@H](CCl)c5c4cc(O)c4ccccc54)(C2)C3)[C@H](O)[C@@H](O)[C@@H]1O [Compound 179, (1S)-1-(chloromethyl)-3-[(3-{[(1S)-1-(chloromethyl)-5-hydroxy-1,2-dihydro-3H-benzo[e]indol-3-yl]carbonyl}bicyclo[1.1.1]pent-1-yl)acetyl]-2,3-dihydro-1H-benzo[e]indol-5-yl beta-D-glucopyranosiduronic acid] here?
Answer: 14.3 nM

Question: And the IC50 [1]?
Answer: 173 nM

Question: CC(=O)Oc1cc2c(c3ccccc13)[C@H](CCl)CN2C(=O)c1sc(C(=O)N2C[C@@H](CCl)c3c2cc(OC(C)=O)c2ccccc32)c2c1OCCCO2 [Compound 142, 3,4-dihydro-2H-thieno[3,4-b][1,4]dioxepine-6,8-diylbis[carbonyl(1S)-1-(chloromethyl)-1,2-dihydro-3H-benzo[e]indole-3,5-diyl] diacetate] was tested. Which IC50 (HL60 (leukemia)) did it give?
Answer: ≥ 10 nM

Question: And the IC50 [1]?
Answer: ≥ 100 nM

Question: What does the source list for COC(=O)[C@H]1O[C@@H](Oc2cc3c(c4ccccc24)[C@H](CCl)CN3C(=O)C23CC(C(=O)N4C[C@@H](CCl)c5c4cc(O)c4ccccc54)(C2)C3)[C@H](OC(C)=O)[C@@H](OC(C)=O)[C@@H]1OC(C)=O [Compound 141, (1S)-1-(chloromethyl)-3-[(3-{[(1S)-1-(chloromethyl)-5-hydroxy-1,2-dihydro-3H-benzo[e]indol-3-yl]carbonyl}bicyclo[1.1.1]pent-1-yl)carbonyl]-2,3-dihydro-1H-benzo[e]indol-5-yl methyl 2,3,4-tri-O-acetyl-beta-D-glucopyranosiduronate]?
Answer: IC50 (HL60 (leukemia)): 0.361 nM; IC50 [1]: 12.7 nM

Question: O=C(c1ccc(C(=O)N2C[C@@H](CCl)c3c2cc(O)c2ccccc32)s1)N1C[C@@H](CCl)c2c1cc(O)c1ccccc21 [Compound 29, (S)-thiophene-2,5-diylbis(((S)-1-(chloromethyl)-5-hydroxy-1H-benzo[e]indol-3(2H)-yl)methanone)] was tested. Which IC50 (HL60 (leukemia)) did it give?
Answer: < 0.001 nM

Question: And the IC50 [1]?
Answer: 0.009 nM

Question: CC(=O)Oc1cc2c(c3c(C)c[nH]c13)[C@H](CCl)CN2C(=O)C12CC(C(=O)N3C[C@@H](CCl)c4c3cc(OC(C)=O)c3[nH]cc(C)c43)(C1)C2 [Compound 91, bicyclo[1.1.1]pentane-1,3-diylbis[carbonyl(1S)-1-(chloromethyl)-8-methyl-1,6-dihydropyrrolo[3,2-e]indole-3,5(2H)-diyl]diacetate] was tested. Which IC50 (HL60 (leukemia)) did it give?
Answer: 0.004 nM

Question: And the IC50 [1]?
Answer: 0.057 nM

Question: How did the IC50 (HL60 (leukemia)) turn out when O=C(c1ccc(C(=O)N2C[C@@H](CCl)c3c2cc(O[C@@H]2O[C@H](CO)[C@H](O)[C@H](O)[C@H]2O)c2ccccc32)s1)N1C[C@@H](CCl)c2c1cc(O)c1ccccc21 [Compound 145, ((S)-1-(chloromethyl)-5-(((2S,3R,4S,5R,6R)-3,4,5-trihydroxy-6-(hydroxymethyl)tetrahydro-2H-pyran-2-yl)oxy)-1,2-dihydro-3H-benzo[e]indol-3-yl)(5-((S)-1-(chloromethyl)-5-hydroxy-2,3-dihydro-1H-benzo[e]indole-3-carbonyl)thiophen-2-yl)methanone] was run?
Answer: 0.051 nM

Question: And the IC50 [1]?
Answer: 0.13 nM

Question: What does the source list for CC(=O)Oc1cc2c(c3ccccc13)[C@H](CCl)CN2C(=O)c1ccc(C(=O)N2C[C@@H](CCl)c3c2cc(OC(C)=O)c2ccccc32)cc1 [Compound 176, benzene-1,4-diylbis[carbonyl(1S)-1-(chloromethyl)-1,2-dihydro-3H-benzo[e]indole-3,5-diyl] diacetate]?
Answer: IC50 (HL60 (leukemia)): 0.199 nM; IC50 [1]: 26.4 nM

Question: For O=C(OCC1c2ccccc2-c2ccccc21)N(CC(=O)N1C[C@@H](CCl)c2c1cc(O)c1ccccc21)CC(=O)N1C[C@@H](CCl)c2c1cc(O)c1ccccc21 [Compound 172, 9H-fluoren-9-ylmethyl bis{2-[(1S)-1-(chloromethyl)-5-hydroxy-1,2-dihydro-3H-benzo[e]indol-3-yl]-2-oxoethyl}carbamate], which IC50 (HL60 (leukemia)) is on record?
Answer: 0.474 nM

Question: What about the IC50 [1] of the same compound?
Answer: 13.8 nM

Question: How did the IC50 (HL60 (leukemia)) turn out when O=C(CNCC(=O)N1C[C@@H](CCl)c2c1cc(OP(=O)(O)O)c1ccccc21)N1C[C@@H](CCl)c2c1cc(OP(=O)(O)O)c1ccccc21 [Compound 173, iminobis[(1-oxoethane-2,1-diyl)(1S)-1-(chloromethyl)-1,2-dihydro-3H-benzo[e]indole-3,5-diyl] bis[dihydrogen (phosphate)]] was run?
Answer: 0.169 nM

Question: And the IC50 [1]?
Answer: 13.1 nM
